Results from patent US20250154140A1 (Sunnybrook Research Institute, priority 2022, published 2025).

Columns and labels:
BAX = BAX (Homo sapiens, UniProt Q07812); assay: SMAC mCherry assay in permeabilized Bax-/- Bak-/- BMK cells with recombinant Bax and cBid; assay type: cell-based, mouse; set-up: made in house; host or cells: Escherichia coli BL21-AI; details: 20 nM Bax, 0.5 nM cBid, 60-80 minutes; read-out: SMAC mCherry I.D IC50
Description: Bax−/− Bak−/− double-knockout Baby Mouse Kidney (BMK) cells stably expressing a SMAC-(1-56)-mCherry fusion protein were cultured in DMEM complete (DMEM supplemented with 10% FBS and 1× Penicillin-Streptomycin) in 10 cm diameter tissue-culture treated dishes at 37° C. in a humidified incubator with 5% CO2 in air. Cells were washed with PBS, incubated with 1×Trypsin and resuspended in DMEM complete. Detached cells were seeded at 6000 cells per well in 50 uL DMEM complete into a 384 well Perkin-Elmer Phenoplate, incubated at room-temperature for 30 minutes followed by incubation overnight at 37° C. in a humidified incubator with 5% CO2 in air. Recombinant Bax and recombinant cBid were quickly thawed between fingers and 25 mM compound stocks in DMSO were thawed at room temperature. An 8 point titration curve of each compound was created in a 384-well source plate containing Trehalose-Hepes Buffer (THB, 135 mM trehalose, 50 mM KCl, 10 mM HEPES-KOH pH 7.4, 5 mM succinate, 20 uM EDTA, 20 uM EGTA, 0.1% BSA) supplemented with 1/1000 DRAQ5, 0.0025% digitonin, 20 nM Bax and 0.5 nM cBid. The source plate also contained control wells with THB supplemented with 1/1000 DRAQ5, 0.0025% digitonin plus 20 nM Bax (negative control) or 20 nM Bax and 0.5 nM cBid (positive control). Using the Vantage automated liquid handler, DMEM complete media was removed from the cells growing in the 384 well Phenoplate. The cells were washed 2× with 30 uL THB and then 25 uL from the 384 well source plate containing THB proteins and compounds was transferred to the cells growing in the 384 well plate. The cells were incubated for 60-80 minutes at 37 C in a humidified incubator with 5% CO2 in air and then imaged on the Opera Phenix Microscope. Two image channels were acquired: 1) DRAQ5 channel, to visualize nuclei and aid in cell segmentation and 2) SMAC-mCherry channel to visualize mitochondria that retain SMAC-mCherry. Data was processed using PerkinElmer Harmony software where the cells were segmented using the DRAQ5 channel and the mean intensity of SMAC-mCherry for each cell was calculated. The single-cell lobject level data was exported and then analyzed using R code. A per cell SMAC-mCherry intensity cutoff was calculated as 1.33 times the mean per cell SMAC-mCherry intensity of the THB+Bax control. Cells with a SMAC-mCherry intensity below or equal to the cutoff were scored as “released”. The percentage SMAC-mCherry release was calculated as the number of cells scored as “released” divided by the total amount of cells multiplied by 100. Dose-response curves were fit to a 4-parameter log-logistic model to determine the IC50 value for each compound.

FL EGFR = molecular target: T1, FL EGFR (Homo sapiens, UniProt P00533); assay: EGFR kinase assay (ADP-Glo); assay type: biochemical
T1 construct: kinase domain of EGFR (amino acids 695-1210); purchased Promega V3831
Description: A peptide containing the kinase domain of EGFR (amino acids 695-1210) was used to assess the inhibitory potency of the inhibitors. The ADP-Glo kinase assay (Promega V9101), and the EGFR kinase enzyme (Promega V3831) were used according to the supplier's instructions. Briefly, […] reactions were assembled in wells of a 384 well plate as follows: 5 μL of the kinase reaction, 5 μL of the ADP depletion reagent, and 10 μL of the luciferase reagent. For the kinase reaction: 1 μL of the inhibitor (dissolved in DMSO) was mixed with 2 μL EGFR peptide ([…]), 1 μL of a poly Glu4Tyr1 peptide (0.2 μg/μL), 1 μL reaction buffer, and 1 μL of ATP (final concentration of 5 μM). The kinase reaction was incubated at room temperature for 1 hour. 5 μL of the ATP depletion/kinase terminating reagent was mixed into each well and incubated at room temperature for 40 minutes. 10 μL of the kinase detection reagent containing luciferase was mixed into each well and incubated at room temperature for 30 minutes for bioluminescent detection of ADP produced from the kinase reaction in step 1. Bioluminescent signal was detected in a Tecan Safire^2 with a black plug covering the excitation filter, and an empty emission filter. The integration time was increased to […] to detect enough luminescence per reading.

Sequence of BAX (Q07812 whole entry, the tested form may be a part): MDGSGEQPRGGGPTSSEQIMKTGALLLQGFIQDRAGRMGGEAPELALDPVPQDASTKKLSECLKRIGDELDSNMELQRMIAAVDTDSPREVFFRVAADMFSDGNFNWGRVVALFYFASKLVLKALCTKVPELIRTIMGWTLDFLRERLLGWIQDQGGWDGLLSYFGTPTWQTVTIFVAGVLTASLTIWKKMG
T1 sequence (P00533 695-1210): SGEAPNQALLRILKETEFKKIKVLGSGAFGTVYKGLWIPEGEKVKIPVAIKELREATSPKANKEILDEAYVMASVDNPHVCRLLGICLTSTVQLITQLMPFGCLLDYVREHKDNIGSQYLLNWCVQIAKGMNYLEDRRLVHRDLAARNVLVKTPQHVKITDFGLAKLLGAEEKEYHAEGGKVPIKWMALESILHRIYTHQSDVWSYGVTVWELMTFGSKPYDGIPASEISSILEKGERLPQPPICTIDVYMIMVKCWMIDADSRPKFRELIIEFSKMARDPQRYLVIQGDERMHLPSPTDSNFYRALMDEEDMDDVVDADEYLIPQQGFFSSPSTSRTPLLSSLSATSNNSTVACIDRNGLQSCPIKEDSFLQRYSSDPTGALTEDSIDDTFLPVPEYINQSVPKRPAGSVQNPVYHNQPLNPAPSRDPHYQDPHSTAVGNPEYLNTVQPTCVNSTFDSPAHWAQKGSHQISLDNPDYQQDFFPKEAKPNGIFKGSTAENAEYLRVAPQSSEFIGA

With COc1cc2ccnc(Nc3ccc(F)c(Cl)c3)c2cc1NC(=O)CCCN1CCCCC1 [Compound 1-1, N-(1-((3-chloro-4-fluorophenyl)amino)-6-methoxyisoquinolin-7-yl)-4-(piperidin-1-yl)butanamide] the IC50 (BAX) was 0.1 to 10 µM and the IC50 (FL EGFR) was > 10 µM.

Work on O=C(CCCN1CCCCC1)Nc1ccc2ccnc(Nc3ccc(F)c(Cl)c3F)c2c1 [Compound 1-40, N-(1-((3-chloro-2,4-difluorophenyl)amino)isoquinolin-7-yl)-4-(piperidin-1-yl)butanamide] yielded an IC50 (BAX) of 0.1 to 10 µM.

O=C(CCCN1CCCCC1)Nc1ccc2ccnc(Nc3ccc(Cl)c(Cl)c3F)c2c1 [Compound 1-34, N-(1-((3,4-dichloro-2-fluorophenyl)amino)isoquinolin-7-yl)-4-(piperidin-1-yl)butanamide] was tested, and the IC50 (BAX) was 0.1 to 10 µM.

With COc1cccc(Nc2nccc3cc(OC)c(NC(=O)CCCN4CCCCC4)cc23)c1 [Compound 1-10, N-(6-methoxy-1-((3-methoxyphenyl)amino)isoquinolin-7-yl)-4-(piperidin-1-yl)butanamide] the IC50 (BAX) was > 100 µM.

Work on COc1cc2ccnc(Nc3ccc(F)c(Cl)c3)c2cc1NC(=O)CCN1CCCCC1 [Compound 1-3, N-(1-((3-chloro-4-fluorophenyl)amino)-6-methoxyisoquinolin-7-yl)-3-(piperidin-1-yl)propanamide] yielded an IC50 (BAX) of 11 to 50 µM.

COc1cc2ccnc(Nc3ccc(F)cc3Cl)c2cc1NC(=O)CCCN1CCCCC1 [Compound I-19, N-(1-((2-chloro-4-fluorophenyl)amino)-6-methoxyisoquinolin-7-yl)-4-(piperidin-1-yl)butanamide] showed an IC50 (BAX) of 11 to 50 µM.

In the case of O=C(CCCN1CCCCC1)Nc1ccc2ccnc(Nc3cc(Cl)c(F)c(Cl)c3)c2c1 [Compound 1-36, N-(1-((3,5-dichloro-4-fluorophenyl)amino)isoquinolin-7-yl)-4-(piperidin-1-yl)butanamide], the IC50 (BAX) is reported as 0.1 to 10 µM.

Work on COc1cc2ccnc(Nc3ccc(F)c(Cl)c3)c2cc1N(C)C(=O)CCCN1CCCCC1 [Compound 1-31, N-(1-((3-chloro-4-fluorophenyl)amino)-6-methoxyisoquinolin-7-yl)-N-methyl-4-(piperidin-1-yl)butanamide] yielded an IC50 (BAX) of 11 to 50 µM.

In the case of O=C(CCCN1CCCCC1)Nc1ccc2ccnc(Nc3ccc(Cl)c(Cl)c3)c2c1 [Compound 1-35, N-(1-((3,4-dichlorophenyl)amino)isoquinolin-7-yl)-4-(piperidin-1-yl)butanamide], the IC50 (BAX) is reported as 0.1 to 10 µM.

Cc1cc2ccnc(Nc3ccc(F)c(Cl)c3)c2cc1NC(=O)CCCN1CCCCC1 [Compound 1-17, N-(1-((3-chloro-4-fluorophenyl)amino)-6-methylisoquinolin-7-yl)-4-(piperidin-1-yl)butanamide] was tested, and the IC50 (BAX) was 11 to 50 µM.

With Cc1ccc(Nc2nccc3ccc(NC(=O)CCCN4CCCCC4)cc23)cc1Cl [Compound 1-32, N-(1-((3-chloro-4-methylphenyl)amino)isoquinolin-7-yl)-4-(piperidin-1-yl)butanamide] the IC50 (BAX) was 0.1 to 10 µM.

COc1cc2ccnc(Nc3cc(F)cc(Cl)c3)c2cc1NC(=O)CCCN1CCCCC1 [Compound 1-25, N-(1-((3-chloro-5-fluorophenyl)amino)-6-methoxyisoquinolin-7-yl)-4-(piperidin-1-yl)butanamide] showed an IC50 (BAX) of 0.1 to 10 µM.

COc1cc2ccnc(Nc3ccc(F)c(Cl)c3)c2cc1NC(=O)CCCN1CCCC1 [Compound 1-4] was tested, and the IC50 (BAX) was 0.1 to 10 µM.

With COc1cc2ccnc(Nc3ccc(F)c(Cl)c3)c2cc1NC(=O)CCN1CCCC1 [Compound 1-42, N-(1-((3-chloro-4-fluorophenyl)amino)-6-methoxyisoquinolin-7-yl)-3-(pyrrolidin-1-yl)propanamide] the IC50 (BAX) was 11 to 50 µM.

With COc1cc(Nc2nccc3cc(OC)c(NC(=O)CCCN4CCCCC4)cc23)ccc1F [Compound 1-22, N-(1-((4-fluoro-3-methoxyphenyl)amino)-6-methoxyisoquinolin-7-yl)-4-(piperidin-1-yl)butanamide] the IC50 (BAX) was 11 to 50 µM.

Work on O=C(CCCN1CCCCC1)Nc1ccc2ccnc(Nc3cccc(Cl)c3F)c2c1 [Compound 1-39, N-(1-((3-chloro-2-fluorophenyl)amino)isoquinolin-7-yl)-4-(piperidin-1-yl)butanamide] yielded an IC50 (BAX) of 0.1 to 10 µM.

With COc1cc2ccnc(Nc3ccc(F)c(C(F)(F)F)c3)c2cc1NC(=O)CCCN1CCCCC1 [Compound 1-16, N-(1-((4-fluoro-3-(trifluoromethyl)phenyl)amino)-6-methoxyisoquinolin-7-yl)-4-(piperidin-1-yl)butanamide] the IC50 (BAX) was 0.1 to 10 µM.

For O=C(CCCN1CCCCC1)Nc1ccc2ccnc(Nc3ccc(F)c(C(F)(F)F)c3)c2c1 [Compound 1-33, N-(1-((4-fluoro-3-(trifluoromethyl)phenyl)amino)isoquinolin-7-yl)-4-(piperidin-1-yl)butanamide], the IC50 (BAX) was 0.1 to 10 µM.

COc1cc2ccnc(Nc3ccc(F)c(Cl)c3)c2cc1NC(=O)CCCN1C[C@@H](C)O[C@@H](C)C1 [Compound 1-5, N-(1-((3-chloro-4-fluorophenyl)amino)-6-methoxyisoquinolin-7-yl)-4-((2S,6R)-2,6-dimethylmorpholino)butanamide] gave an IC50 (BAX) of 0.1 to 10 µM.

With COc1cc2ccnc(Nc3ccc(C)c(Cl)c3)c2cc1NC(=O)CCCN1CCCCC1 [Compound 1-21, N-(1-((3-chloro-4-methylphenyl)amino)-6-methoxyisoquinolin-7-yl)-4-(piperidin-1-yl)butanamide] the IC50 (BAX) was 0.1 to 10 µM.

In the case of O=C(CCCN1CCCCC1)Nc1cc2c(Nc3ccc(F)c(Cl)c3)nccc2cc1Cl [Compound 1-26, N-(6-chloro-1-((3-chloro-4-fluorophenyl)amino)isoquinolin-7-yl)-4-(piperidin-1-yl)butanamide], the IC50 (BAX) is reported as 0.1 to 10 µM.

With COc1cc2ccnc(Nc3ccccc3)c2cc1NC(=O)CCCN1CCCCC1 [Compound 1-15, N-(6-methoxy-1-(phenylamino)isoquinoin-l7-yl)-4-(piperidin-1-yl)butanamide] the IC50 (BAX) was 51 to 100 µM.

Compound COc1cc2ccnc(Nc3ccc(F)cc3)c2cc1NC(=O)CCCN1CCCCC1 [Compound 1-12, N-(1-((4-fluorophenyl)amino)-6-methoxyisoquinolin-7-yl)-4-(piperidin-1-yl)butanamide] has an IC50 (BAX) of 51 to 100 µM.

With O=C(CCCN1CCCCC1)Nc1ccc2ccnc(Nc3cc(F)c(Cl)c(Cl)c3)c2c1 [Compound 1-37, N-(1-((3,4-dichloro-5-fluorophenyl)amino)isoquinolin-7-yl)-4-(piperidin-1-yl)butanamide] the IC50 (BAX) was 0.1 to 10 µM.

Work on COc1cc2ccnc(Nc3ccc(F)c(Cl)c3)c2cc1NC(=O)CCCN1CCC(F)(F)CC1 [Compound 1-8, N-(1-((3-chloro-4-fluorophenyl)amino)-6-methoxyisoquinolin-7-yl)-4-(4,4-difluoropiperidin-1-yl)butanamide] yielded an IC50 (BAX) of 0.1 to 10 µM.

Work on COc1cc2ccnc(Nc3cccc(Cl)c3)c2cc1NC(=O)CCCN1CCCCC1 [Compound 1-13, N-(1-((3-chlorophenyl)amino)-6-methoxyisoquinolin-7-yl)-4-(piperidin-1-yl)butanamide] yielded an IC50 (BAX) of 11 to 50 µM.
